Results as given in US20060148714A1, “Therapeutic peptide-based constructs” (priority 1999, published 2006).
≈ marks a conversion by molar mass, not a printed value. Where a SMILES comes first, the peptide text is derived from it. Where no end group is shown, it is not given here. [ ]: non-standard residue; d: D form. The star is where a group is joined. 2‑biphenylenecarbonyl = O=C(c1ccc2c(c1)-c1ccccc1-2)*; Acetyl(2-naphthyl) = O=C(Cc1ccc2ccccc2c1)*; d1Nal = N[C@H](Cc1cccc2ccccc12)C(=O)O

What was measured:
[1] = test system: Factor Xa neutralization by ATIII/heparin complexes; experiment: Chromostrate heparin anti-Factor Xa assay (heparin neutralization); format: biochemical; settings: absorbance at 405 nm
Protocol: A Chromostrate™ assay was used to determine the effect of peptide-based constructs, including derivatized constructs, and the effect protamine sulfate (as a positive control) on Factor Xa neutralization by ATIII/heparin complexes. The assay was conducted using a Chromostrate™ heparin anti-Factor Xa assay kit (Organon Teknika Corp., Durham, N.C.). Heparin concentration was varied so that a heparin standard curve was generated. The assay measured the potentiating effect of heparin on anti-Xa activity in vitro. Solution containing heparin is incubated in the presence of ATIII with an excess of Factor Xa, forming an ATIII-Heparin-Xa complex. The remaining Xa catalyzes the release of p-nitroaniline (pNA) from the chromogenic substrate. The release of p-nitroaniline is measured at 405 nm. The absorbance obtained in inversely porportional to the concentration of heparin in the sample.
Reagents for the assay are prepared as follows. Heparin, peptide-based constructs and protamine sulfate stocks are made in saline. Stock solutions are approximately 1 mg/mL=1 μg/μL. Factor Xa reagent and substrate reagent are reconstituted with 2.0 mL purified water. Antithrombin III (ATIII) reagent is reconstituted with 1.0 mL purified water. The assay is performed in 96 well microtiter plates. Assay components are added to the microtiter wells as follows: 12.5 μl of heparin (from 0 to 10 U/mL), 25 μl of construct or protamine sulfate, 12.5 μL of ATIII (0.5 PEU/mL), 25 μL of bovine Factor Xa (14 nKat/mL), 25 μL substrate (3 μmoles/mL). The reaction is allowed to proceed for 20 minutes and then 25 μL of 0.1 M acetic acid is added. The color reaction is quantitated on a microplate reader at 405 nm. Constructs that neutralize heparin show an increase in the absorbance at 405 nm. Protamine is used as a positive control and its activity is designated as 100%. The percent (%) heparin neutralization for each peptide construct is calculated relative to the neutralization by protamine (100%), and shown in Table IV.

[2] = Behaviour in 1 mg/ml stock solution; format: physicochemical; set-up: key: b: precipitated in 1 mg/ml stock solution; settings: no IC50 given
[3] = test system: human umbilical vein endothelial cells (HUVEC); format: cell-based
Protocol: Briefly, human umbilical vein endothelial cells (HUVEC) were cultured in EGM-2 medium (Clonetics Corp., San Diego, Calif.), harvested and plated onto a 96-well culture plate. After 24 hours of quiescence, the cells were co-cultured with various peptide-based constricts in the presence of growth factors for 72 hours to test their activity. Cell proliferation was quantitated by tritiated thymidine incorporation into DNA and was expressed in counts per minute (cpm).
Details of the experimental procedures were as follows: HUVEC cells were cultured in EGM-2 media from Clonetics Corp., a subsidiary of BioWhittaker, Inc., San Diego, Calif. [EGM-2 is Endothelial Cell Basal Medium-2 (EMB-2) supplemented with growth factors (hFGF-B, VEGF, IGF-1, hEGF) ascorbic acid, heparin, GA-1000 and 2% FBS), in T75 flasks until confluent (˜4-7 days). Cells were harvested by trypsinizing the cells using 0.025% trypsin/EDTA for 5 minutes. To stop the reaction, 2-5% FBS was added. The cells were centrifuged and washed 3 times using Hank's Balanced Salt Solution (HBSS) or Dulbecco's Phosphate Buffered Saline D-PBS. The pellet was then resuspended in EBM-2 supplemented with 0.1% FBS and GA-1000 was used. The cells were counted and a cell suspension was prepared at 2×10^5/mL in EBM-2 with 0.1% FBS; cells were dispensed into a 96-well flat bottomed culture plate at 0.1 mL/well (total: ˜20,000 cells/well in 0.1% FBS-EBM-2). Incubation continued at 37° C. in 5% CO2 for 20-24 hours. The next day peptide-based constructs were prepared for testing in a 96 well plate. The supernatant was aspirated from the cell-well, replaced with EBM-2 or the testing reagent at 20 μL/well. Then, 180 μL/well of 1.12% FBS-GFS were added to make a final concentration of 1% FBS-GFS in EBM-2. This aspiration and addition was done well-by-well. ^3H-thymidine (100 μCi/mL) was added at 10 μL/well (1 μCi/well, final). Incubation continued at 37° C., 5% CO2 for 72 hours. To harvest the plate, the supernatant was aspirated off from the cell-well and then 75 μL-100 μL/well of 0.025% trypsin-EDTA was added. After incubation for 8-10 minutes at room temperature in the hood, the cells were checked and 100 μL/well of 2-5% FBS-PBS was added to stop the reaction. The plate was then harvested, dried and counted using an Inotech cell harvester (Inotech Biosystems, INB-384, Sample Processing and Filter Counting System, Lansing, Mich.).

[4] = test system: retinal endothelial cells; experiment: Retinal endothelial cell growth stimulated by VEGF (DNA content); format: cell-based, bovine; settings: 5 μg/mL and 15 μg/mL
Protocol: In these experiments, peptide-based constructs are tested for their activity on the action of VEGF, bFGF, IGF-1 and conditioned media (hypoxia and hyperglycemia) on the in vitro growth and migration of retinal pigmented epithelial cells (RPE), retinal microvessel pericytes, and retinal endothelial cells. Effects are evaluated on gene expression under hypoxic or […] conditions. In additional experiments, the effects of such constructs are characterized in vivo on the neovascular responses to hyperoxia in the retina of the neonatal mouse.
For the in vitro culture experiments, retinal microvessel pericytes, retinal endothelial cells, and retinal pigmented epithelial cells (RPE) are cultured from bovine retina. Dose responses and time course for growth and migration as stimulated by VEGF, bFGF, and IGF-1 are performed. For example, retinal endothelial cell growth as stimulated by VEGF was inhibited with 5 μg/mL and 15 μg/mL XMP.679 as measured by DNA content (ng/cell well). […] When the dose responses of these growth factors and conditioned media are determined, the effect of peptide-based constructs independently, and in combination with the growth factors described above, are tested in growth and migration assays.

[5] = test system: E. coli (J5 and 0111 B4), Staphylococcus aureus and Candida albicans; experiment: Broth and/or radial diffusion antimicrobial assays; format: cell-based
From the text: Assays useful for testing a variety of biological activities of BPI protein products, including BPI-derived peptides, are described in co-owned U.S. Pat. Nos. 5,733,872; 5,763,567; 5,652,332; and 5,856,438 and corresponding PCT Publication Nos. WO 94/20532 (PCT/US94/02465) and WO 95/19372 (PCT/US94/10427) and U.S. Pat. No. 5,858,974 and corresponding PCT Publications Nos. WO 96/08509 (PCT/US95/09262) and WO 97/04008 (PCT/US96/03845), incorporated herein by reference. These activities include antimicrobial (including antibacterial and antifungal), LPS binding, LPS neutralization and additional assays of heparin binding as well as heparin neutralization.

[6] = test system: bFGF-induced angiogenesis; experiment: In vivo Matrigel angiogenesis assay (hemoglobin content of excised gel); settings: 10 μg peptide construct per gel; hemoglobin of gel excised ten days after s.c. injection; C57BL/6J mice
Protocol: For these experiments, peptide-based constructs according to the invention were assayed for their ability to inhibit heparin-induced angiogenesis in vivo in mice. Basement membrane matrix (Matrigel®, Becton Dickinson Labware, Mountain View, Calif.) was thawed and maintained at 4° C. and angiogenic factors were added to the gel in the liquid state generally as described in Passaniti et al., 1992, Lab. Invest. 67: 519-528. Heparin sodium (Sigma, St. Louis, Mo.) was dissolved in sterile PBS to various concentrations ranging from 1,250-10,000 U/mL, and used in these experiments at 8,000 U/mL. Human recombinant basic fibroblast growth factor (bFGF; Sigma) was reconstituted into 1. % BSA in PBS to 25 μg/mL. A volume of 2.5 μL dissolved heparin solution and 4.0 μL recombinant bFGF were added to 0.5 mL Matrigel® mixture per mouse injection. Peptide-based constructs were added to this Matrigel® mixture at varying concentrations ranging from 0.5 to 50 μg/mL (final concentration) in 10 μL/0.5 mL Matrigel® aliquot per experimental animal. Ten μL sterile PBS was substituted for peptide-based constructs in Matrigel® aliquots injected into control animals.
Female C57BL/6J mice (Jackson Laboratory, Bar Barbor, Me.) at 6-8 weeks of age (maintained under NIH guidelines) were injected subcutaneously down the dorsal midline with 0.5 mL aliquots of Matrigel® prepared as described above. Ten days after injection, the Matrigel® gels were excised and placed in Drabkin's reagent (Sigma). Total protein and hemoglobin content can be determined for the gels stored in Drabkin's reagent after mechanical homogenization of the gels. Hemoglobin concentration was measured using Sigma Procedure #525 and reagents supplied by Sigma (St. Louis, Mo.) to be used with this procedure. If desired, total protein levels are determined using a microplate assay that is commercially embodied in a kit (DC Protein Assay, Bio-Rad, Richmond, Calif.).
Gels to be used for histological staining are formalin-fixed immediately after excision from the animals rather than being placed in Drabkin's reagent. Formalin-fixed gels are embedded in Tissue-Tek O.C.T. compound (Miles, Inc., Elkhart, Ind.) for frozen sectioning. Slides of frozen sections are stained with hematoxylin and eosin (as described by Humason, 1979, Animal Tissue Techniques, 4th Ed. W.H. Feeman & Co., San Francisco, Calif., Ch. 9, pp. 111-131). The effect of peptides are detected by microscopic examination of frozen stained sections for inhibition of angiogenesis relative to Matrigel® gel slices prepared without added peptides. The extent of angiogenesis inhibition is quantitated using the normalized amounts of hemoglobin found in BPI peptide-containing gel slices.
Data are presented as the means of triplicate determinations of hemoglobin concentrations from the excised gel (ISEM) with ten mice per group.

[7] = test system: LPS; experiment: RAW cell assay of LPS neutralization; format: cell-based

Molecule | Assay A: percent heparin neutralization relative to protamine (100%) [1] | Assay B: percent heparin neutralization relative to protamine (100%) [1] | precipitated in 1 mg/ml stock solution [2] | IC50 ([3]; 72 h) | cell growth by DNA content in treated VEGF-stimulated cells versus unstimulated cells [4] | retinal endothelial cell growth as stimulated by VEGF, measured by DNA content (ng/cell well) [4] | antimicrobial activity [5] | IC50 values, additional assays ([3]; HUVEC proliferation, purified constructs, said to be comparable to Table II (μg/mL)) | % Inhibition [6] | LPS neutralization activity [7]
2-naphthylacetyl-k-l-f-r-(naph-a)-q-a-k ({Acetyl(2-naphthyl)}-[dK][dL][dF][dR][dNal][dQ][dA][dK]; not fully specified; printed as 2-naphthylacetyl-k-l-f-r-(naph-a)-q-a-k) [XMP.666] | 39% | 18% | b | – | – | – | – | – | – | –
2-biphenylenecarbonyl-k-l-f-r-(naph-a)-q-a-k ({2‑biphenylenecarbonyl}-[dK][dL][dF][dR][dNal][dQ][dA][dK]; not fully specified; printed as 2-biphenylenecarbonyl-k-l-f-r-(naph-a)-q-a-k) [XMP.699] | 45% | 23% | b | – | – | – | – | – | – | –
CC(C)C[C@@H](NC(=O)[C@H](N)CCCCN)C(=O)N[C@H](Cc1ccccc1)C(=O)N[C@H](CCCCN)C(=O)N[C@H](Cc1cccc2ccccc12)C(=O)N[C@H](CCC(N)=O)C(=O)N[C@H](C)C(=O)N[C@H](CCCCN)C(=O)N[C@H](Cc1cccc2ccccc12)C(=O)N[C@H](CCCCN)C(=O)NCC(N)=O [XMP.679, k-l-f-k-(naph-a)-q-a-k-(naph-a)-k-g] (H-[dK][dL][dF][dK][d1Nal][dQ][dA][dK][d1Nal][dK]G-NH2; N-terminus assumed) | 96% | 94% | – | 6.3 ± 0.9 µg/mL (≈ 4.37 µM) | comparable with that of cells not stimulated by VEGF | inhibited | highest antimicrobial activities | – | – | –
CC[C@@H](C)[C@@H](NC(=O)[C@@H](CO)NC(=O)CNC(=O)[C@@H](CCCCN)NC(=O)[C@@H](Cc1cccc2ccccc12)NC(=O)[C@@H](CCCCN)NC(=O)[C@@H](C)NC(=O)[C@@H](CCC(N)=O)NC(=O)[C@@H](Cc1cccc2ccccc12)NC(=O)[C@@H](CCCNC(=N)N)NC(=O)[C@@H](Cc1ccccc1)NC(=O)[C@@H](CC(C)C)NC(=O)[C@H](N)CCCCN)C(=O)N[C@H](CCCCN)C(N)=O [XMP.624, k-l-f-r-(naph-a)-q-a-k-(naph-a)-k-g-s-i-k] (H-[dK][dL][dF][dR][d1Nal][dQ][dA][dK][d1Nal][dK]G[dS][dI][dK]-NH2) | 131% | 94% | – | – | – | – | – | 4.9 ±0.5 | 51.9% | showed activity
